The record followed here is EP0908457B1, “3-(1,2-benzisothiazol- and isoxazol-5-Y1)-2,4(1H,3H)-pyrimidinedione or thione and 3-(1,2-benzisothiazol- and isoxazol-5-y1)-4(3H)-pyrimidinone or thione herbicidal agents” (BASF AKTIENGESELLSCHAFT, priority 1997, dated 1999).

One series relates to Cyperus iria. The series is described as follows: Preemergence weed control under flooded paddy conditions, CYPIR (Rice Flatsedge). The format is in vivo. Particulars: preemergence, flooded paddy, rated three to four weeks after treatment.
In the next series the test system is Sagittaria pygmaea, L. In words: Preemergence weed control under flooded paddy conditions, SAGPY (Arrowhead (Pygmaea)). It counts as in vivo. The conditions noted are these: preemergence, flooded paddy, rated three to four weeks after treatment.
In series [1] the test system is Echinochloa oryzoides (Ard.) Fritsch. In words: Preemergence weed control under flooded paddy conditions, ECHORC (Watergrass (Calif.)). The format is in vivo. Particulars: preemergence, flooded paddy, rated three to four weeks after treatment.
For series [2], the system named is Cyperus serotinus, Rottb. In words: Preemergence weed control under flooded paddy conditions, CYPSE (Flatsedge). The conditions noted are these: preemergence, rated three to four weeks after treatment. It counts as in vivo.
In series [3] the test system is Monochoria vaginalis, Presl. In words: Preemergence weed control under flooded paddy conditions, MOOVA (Monochoria). It counts as in vivo. Particulars: preemergence, flooded paddy, rated three to four weeks after treatment.
Series [4] has as its system Oryza sativa, (L.) Tebonnet. The series is described as follows: Rice tolerance to post-transplant applications under flooded paddy conditions (Example 187), ORYSAT (Rice, Tebonnet). Particulars: rated three to four weeks after treatment.

For `Cn1c(C(F)(F)F)cc(=O)n(-c2ccc3snc(C(C)(C)C#N)c3c2)c1=O` [Example 256, 1,2-Benzisothiazole-3-acetonitrile, 5-[3,6-dihydro-3-methyl-2,6-dioxo-4-(trifluoromethyl)-1(2H)-pyrimidinyl)-alpha,alpha-dimethyl-], the “CYPIR herbicidal effect rating” value in the series with Cyperus iria (Rate 0.0320 kg/ha) came to 8.0; in the series on Cyperus iria (Rate 0.0620 kg/ha) it was 9.0; in the series with Cyperus iria (Rate 0.1250 kg/ha), 9.0; with Cyperus iria (Rate 0.2500 kg/ha) it was 9.0. Also, the “SAGPY herbicidal effect rating” value with Sagittaria pygmaea, L. (Rate 0.0320 kg/ha) is given as 0.0; in the series on Sagittaria pygmaea, L. (Rate 0.0620 kg/ha), 0.0; with Sagittaria pygmaea, L. (Rate 0.1250 kg/ha), 4.0; with Sagittaria pygmaea, L. (Rate 0.2500 kg/ha) it was 8.0. The “ECHORC herbicidal effect rating” value in series [1] (Rate 0.0320 kg/ha) is 1.0; in series [1] (Rate 0.0620 kg/ha), 3.0; in series [1] (Rate 0.1250 kg/ha) it was 7.0; in series [1] (Rate 0.2500 kg/ha) it was 9.0. The “CYPSE herbicidal effect rating” value in series [2] (Rate 0.0320 kg/ha) was determined as 0.0; in series [2] (Rate 0.0620 kg/ha), 2.0; in series [2] (Rate 0.1250 kg/ha), 6.0; in series [2] (Rate 0.2500 kg/ha), 9.0. Besides, the “MOOVA herbicidal effect rating” value is on record as 8.0 in series [3] (Rate 0.0320 kg/ha), 9.0 in series [3] (Rate 0.0620 kg/ha), 9.0 in series [3] (Rate 0.1250 kg/ha) and 9.0 in series [3] (Rate 0.2500 kg/ha). Further, the “ORYSAT herbicidal effect rating” value came out at 6.0 in series [4] (Rate 0.0320 kg/ha), 8.0 in series [4] (Rate 0.0620 kg/ha), 8.0 in series [4] (Rate 0.1250 kg/ha) and 9.0 in series [4] (Rate 0.2500 kg/ha).

In the case of `COC(=O)COc1ccc(-c2nsc3ccc(-n4c(=O)cc(C(F)(F)F)n(C)c4=O)cc23)cc1` [Example 257, Acetic acid, {p-{5-[3,6-dihydro-3-methyl-2,6-dioxo-4-(trifluoromethyl)-1(2H)-pyrimidinyl)-1,2-benzisothiazol-3-yl}phenoxy}-, methyl ester], the “CYPIR herbicidal effect rating” value came to 0.0 with Cyperus iria (Rate 0.0320 kg/ha), 2.0 in the series with Cyperus iria (Rate 0.0620 kg/ha), 4.0 with Cyperus iria (Rate 0.1250 kg/ha) and 6.0 in the series with Cyperus iria (Rate 0.2500 kg/ha). In addition, the “SAGPY herbicidal effect rating” value came to 0.0 with Sagittaria pygmaea, L. (Rate 0.0320 kg/ha); 0.0 with Sagittaria pygmaea, L. (Rate 0.0620 kg/ha); 0.0 in the series with Sagittaria pygmaea, L. (Rate 0.1250 kg/ha); 0.0 in the series on Sagittaria pygmaea, L. (Rate 0.2500 kg/ha). Besides, the “ECHORC herbicidal effect rating” value in series [1] (Rate 0.0320 kg/ha), in series [1] (Rate 0.0620 kg/ha), in series [1] (Rate 0.1250 kg/ha) and in series [1] (Rate 0.2500 kg/ha) was 0.0 throughout. Also, the “CYPSE herbicidal effect rating” value in series [2] (Rate 0.0320 kg/ha) and in series [2] (Rate 0.0620 kg/ha) was 0.0 each time. Besides, the “MOOVA herbicidal effect rating” value is 8.0 in series [3] (Rate 0.0320 kg/ha), 9.0 in series [3] (Rate 0.0620 kg/ha), 9.0 in series [3] (Rate 0.1250 kg/ha) and 9.0 in series [3] (Rate 0.2500 kg/ha). Also, the “ORYSAT herbicidal effect rating” value in series [4] (Rate 0.0320 kg/ha) is given as 0.0; in series [4] (Rate 0.0620 kg/ha) it was 0.0; in series [4] (Rate 0.1250 kg/ha), 1.0; in series [4] (Rate 0.2500 kg/ha), 2.0.

`COC(=O)C(C)Oc1ccc(-c2nsc3ccc(-n4c(=O)cc(C(F)(F)F)n(C)c4=O)cc23)cc1` (stereo not shown) [Example 258, Propionic acid, 2-{p-{5-[3,6-dihydro-3-methyl-2,6-dioxo-4-(trifluoromethyl)-1(2H)-pyrimidinyl]-1,2-benzisothiazol-3-yl}phenoxy}-, methyl ester]: the “CYPIR herbicidal effect rating” value in the series with Cyperus iria (Rate 0.0320 kg/ha) was determined as 0.0; with Cyperus iria (Rate 0.0620 kg/ha), 2.0; in the series on Cyperus iria (Rate 0.1250 kg/ha), 7.0; in the series on Cyperus iria (Rate 0.2500 kg/ha) it was 8.0. Besides, the “SAGPY herbicidal effect rating” value is recorded as 0.0 in the series with Sagittaria pygmaea, L. (Rate 0.0320 kg/ha); 0.0 in the series on Sagittaria pygmaea, L. (Rate 0.0620 kg/ha); 0.0 in the series on Sagittaria pygmaea, L. (Rate 0.1250 kg/ha); 0.0 in the series on Sagittaria pygmaea, L. (Rate 0.2500 kg/ha). In addition, the “ECHORC herbicidal effect rating” value in series [1] (Rate 0.0320 kg/ha), in series [1] (Rate 0.0620 kg/ha), in series [1] (Rate 0.1250 kg/ha) and in series [1] (Rate 0.2500 kg/ha) was 0.0 in each case. The “CYPSE herbicidal effect rating” value in series [2] (Rate 0.0320 kg/ha), in series [2] (Rate 0.0620 kg/ha) and in series [2] (Rate 0.1250 kg/ha) was 0.0 throughout. Further, the “MOOVA herbicidal effect rating” value in series [3] (Rate 0.0320 kg/ha), in series [3] (Rate 0.0620 kg/ha), in series [3] (Rate 0.1250 kg/ha) and in series [3] (Rate 0.2500 kg/ha) was 9.0 each time. For the same compound, the “ORYSAT herbicidal effect rating” value in series [4] (Rate 0.0320 kg/ha) is listed as 2.0; in series [4] (Rate 0.0620 kg/ha), 2.0; in series [4] (Rate 0.1250 kg/ha), 3.0; in series [4] (Rate 0.2500 kg/ha), 4.0.

For the compound `C#CCOC(=O)COc1ccc(-c2nsc3ccc(-n4c(=O)cc(C(F)(F)F)n(C)c4=O)cc23)cc1` [Example 259, Acetic acid, [p-{5-[3,6-dihydro-3-methyl-2,6-dioxo-4-(trifluoromethyl)-1(2H)-pyrimidinyl]-1,2-benzisothiazol-3-yl}phenoxy)-, 2-propynyl ester], the “CYPIR herbicidal effect rating” value in the series on Cyperus iria (Rate 0.0320 kg/ha) turned out to be 0.0; with Cyperus iria (Rate 0.0620 kg/ha) it was 2.0; in the series with Cyperus iria (Rate 0.1250 kg/ha), 4.0; in the series with Cyperus iria (Rate 0.2500 kg/ha) it was 4.0. The “SAGPY herbicidal effect rating” value in the series on Sagittaria pygmaea, L. (Rate 0.0320 kg/ha) turned out to be 0.0; in the series with Sagittaria pygmaea, L. (Rate 0.0620 kg/ha), 0.0; in the series on Sagittaria pygmaea, L. (Rate 0.1250 kg/ha) it was 0.0; with Sagittaria pygmaea, L. (Rate 0.2500 kg/ha), 0.0. The “ECHORC herbicidal effect rating” value in series [1] (Rate 0.0320 kg/ha) was determined as 0.0; in series [1] (Rate 0.0620 kg/ha), 0.0; in series [1] (Rate 0.1250 kg/ha), 0.0; in series [1] (Rate 0.2500 kg/ha), 2.0. Further, the “CYPSE herbicidal effect rating” value in series [2] (Rate 0.0320 kg/ha) and in series [2] (Rate 0.0620 kg/ha) was 0.0 throughout. In addition, the “MOOVA herbicidal effect rating” value was 6.0 in series [3] (Rate 0.0320 kg/ha), 9.0 in series [3] (Rate 0.0620 kg/ha), 9.0 in series [3] (Rate 0.1250 kg/ha) and 9.0 in series [3] (Rate 0.2500 kg/ha). For the same compound, the “ORYSAT herbicidal effect rating” value in series [4] (Rate 0.0320 kg/ha) was 1.0; in series [4] (Rate 0.0620 kg/ha) it was 1.0; in series [4] (Rate 0.1250 kg/ha), 2.0; in series [4] (Rate 0.2500 kg/ha) it was 3.0.

For `Cn1c(C(F)(F)F)cc(=O)n(-c2ccc3snc(CCBr)c3c2)c1=O` [Example 260, 2,4(1H,3H)-Pyrimidinedione, 3-[3-(2-bromoethyl)-1,2-benzisothiazol-5-yl]-1-methyl-6-(trifluoromethyl)-], the “CYPIR herbicidal effect rating” value in the series with Cyperus iria (Rate 0.2500 kg/ha) is given as 0.0. Also, in the series with Sagittaria pygmaea, L. (Rate 0.2500 kg/ha), the “SAGPY herbicidal effect rating” value amounted to 0.0. For the same compound, the “ECHORC herbicidal effect rating” value in series [1] (Rate 0.2500 kg/ha) stood at 0.0. In addition, the “CYPSE herbicidal effect rating” value in series [2] (Rate 0.2500 kg/ha) was 0.0. In addition, the “MOOVA herbicidal effect rating” value in series [3] (Rate 0.2500 kg/ha) turned out to be 0.0. In addition, the “ORYSAT herbicidal effect rating” value in series [4] (Rate 0.2500 kg/ha) is listed as 0.0.

For the compound `COP(=O)(Cc1nsc2ccc(-n3c(=O)cc(C(F)(F)F)n(C)c3=O)cc12)OC` [Example 262, 1,2-Benzisothiazole-3-methanephosphonic acid, 5-[3,6-dihydro-3-methyl-2,6-dioxo-4-(trifluoromethyl)-1(2H)-pyrimidinyl]-, dimethyl ester], the “CYPIR herbicidal effect rating” value in the series on Cyperus iria (Rate 0.0620 kg/ha) was 0.0; in the series with Cyperus iria (Rate 0.1250 kg/ha), 6.0; with Cyperus iria (Rate 0.2500 kg/ha) it was 9.0. Also, the “SAGPY herbicidal effect rating” value was found to be 0.0 in the series with Sagittaria pygmaea, L. (Rate 0.0620 kg/ha); 0.0 in the series on Sagittaria pygmaea, L. (Rate 0.1250 kg/ha); 0.0 with Sagittaria pygmaea, L. (Rate 0.2500 kg/ha). The “ECHORC herbicidal effect rating” value is 0.0 in series [1] (Rate 0.0620 kg/ha), 0.0 in series [1] (Rate 0.1250 kg/ha) and 3.0 in series [1] (Rate 0.2500 kg/ha). Also, the “CYPSE herbicidal effect rating” value in series [2] (Rate 0.0620 kg/ha), in series [2] (Rate 0.1250 kg/ha) and in series [2] (Rate 0.2500 kg/ha) was 0.0 throughout. Besides, the “MOOVA herbicidal effect rating” value in series [3] (Rate 0.0620 kg/ha) is given as 0.0; in series [3] (Rate 0.1250 kg/ha), 9.0; in series [3] (Rate 0.2500 kg/ha), 9.0. Further, the “ORYSAT herbicidal effect rating” value in series [4] (Rate 0.0620 kg/ha) is 0.0; in series [4] (Rate 0.1250 kg/ha), 0.0; in series [4] (Rate 0.2500 kg/ha), 3.0.

Consider `CC(C)OP(=O)(Cc1nsc2ccc(-n3c(=O)cc(C(F)(F)F)n(C)c3=O)cc12)OC(C)C` [Example 263, 1,2-Benzisothiazole-3-methanephosphonic acid, 5-[3,6-dihydro-3-methyl-2,6-dioxo-4-(trifluoromethyl)-1(2H)-pyrimidinyl]-, diisopropyl ester], for which the “CYPIR herbicidal effect rating” value was 4.0 in the series on Cyperus iria (Rate 0.0320 kg/ha), 7.0 in the series with Cyperus iria (Rate 0.0620 kg/ha), 9.0 with Cyperus iria (Rate 0.1250 kg/ha) and 9.0 in the series on Cyperus iria (Rate 0.2500 kg/ha). The “SAGPY herbicidal effect rating” value with Sagittaria pygmaea, L. (Rate 0.0320 kg/ha) was 0.0; in the series with Sagittaria pygmaea, L. (Rate 0.0620 kg/ha), 0.0; in the series with Sagittaria pygmaea, L. (Rate 0.1250 kg/ha), 0.0; in the series with Sagittaria pygmaea, L. (Rate 0.2500 kg/ha), 0.0. Besides, the “ECHORC herbicidal effect rating” value in series [1] (Rate 0.0320 kg/ha) came out at 0.0; in series [1] (Rate 0.0620 kg/ha) it was 0.0; in series [1] (Rate 0.1250 kg/ha) it was 0.0; in series [1] (Rate 0.2500 kg/ha), 2.0. Also, the “CYPSE herbicidal effect rating” value in series [2] (Rate 0.0320 kg/ha), in series [2] (Rate 0.0620 kg/ha), in series [2] (Rate 0.1250 kg/ha) and in series [2] (Rate 0.2500 kg/ha) was 9.0 each time. Besides, the “MOOVA herbicidal effect rating” value in series [3] (Rate 0.0320 kg/ha) is 0.0; in series [3] (Rate 0.0620 kg/ha), 0.0; in series [3] (Rate 0.1250 kg/ha), 6.0; in series [3] (Rate 0.2500 kg/ha), 9.0. The “ORYSAT herbicidal effect rating” value in series [4] (Rate 0.0320 kg/ha) was 0.0; in series [4] (Rate 0.0620 kg/ha), 0.0; in series [4] (Rate 0.1250 kg/ha), 0.0; in series [4] (Rate 0.2500 kg/ha), 4.0.
